target: TARP γ8 dependent AMPA receptor (GluA1o-g8 fusion channel) (Homo sapiens (Human), UniProt P42261+Q8WXS5); assay: Calcium flux assay (FLIPR), HEK293 cells expressing GRIA1o-CACNG8 fusion; format: cell-based; details: inhibition of calcium flux after 15 μM glutamate, read-out: GluR1-γ8 pIC50 (converted)
Description: This assay was used to test compounds for their ability to inhibit TARP γ8 dependent AMPA receptor activity.
An in vitro assay was used to determine the potency of test compounds as inhibitors of the glutamate response of the channel formed by GluA1o-g8. To ensure a 1:1 stoichiometry of GluA1o and g8 subunits in the expressed channel, a fusion of the cDNAs for GRIA1o and CACNG8 was used. […] A clonal cell line in HEK293 cells stably expressing this construct, with a geneticin selection marker, was generated for use in this assay. Cell expressing the GRIAlo-CACNG8 fusion construct were grown in a monolayer in 96- or 384-well microtiter plates. […] The cells were then loaded with a calcium-sensitive dye (Calcium-5 or Calcium-6, Molecular Devices) and the test compounds at a range of concentrations.
The fluorescence in each well was normalized to the fluorescence of negative and positive control wells. […] The responses to glutamate as functions of the test compound concentrations were fitted to a four-parameter logistic function. The fitted parameter corresponding to the midpoint was taken to be the potency of inhibition of the compound.

TARP γ8 dependent AMPA receptor (GluA1o-g8 fusion channel), sequence (P42261 other isoform, or with tags, fused parts or gaps): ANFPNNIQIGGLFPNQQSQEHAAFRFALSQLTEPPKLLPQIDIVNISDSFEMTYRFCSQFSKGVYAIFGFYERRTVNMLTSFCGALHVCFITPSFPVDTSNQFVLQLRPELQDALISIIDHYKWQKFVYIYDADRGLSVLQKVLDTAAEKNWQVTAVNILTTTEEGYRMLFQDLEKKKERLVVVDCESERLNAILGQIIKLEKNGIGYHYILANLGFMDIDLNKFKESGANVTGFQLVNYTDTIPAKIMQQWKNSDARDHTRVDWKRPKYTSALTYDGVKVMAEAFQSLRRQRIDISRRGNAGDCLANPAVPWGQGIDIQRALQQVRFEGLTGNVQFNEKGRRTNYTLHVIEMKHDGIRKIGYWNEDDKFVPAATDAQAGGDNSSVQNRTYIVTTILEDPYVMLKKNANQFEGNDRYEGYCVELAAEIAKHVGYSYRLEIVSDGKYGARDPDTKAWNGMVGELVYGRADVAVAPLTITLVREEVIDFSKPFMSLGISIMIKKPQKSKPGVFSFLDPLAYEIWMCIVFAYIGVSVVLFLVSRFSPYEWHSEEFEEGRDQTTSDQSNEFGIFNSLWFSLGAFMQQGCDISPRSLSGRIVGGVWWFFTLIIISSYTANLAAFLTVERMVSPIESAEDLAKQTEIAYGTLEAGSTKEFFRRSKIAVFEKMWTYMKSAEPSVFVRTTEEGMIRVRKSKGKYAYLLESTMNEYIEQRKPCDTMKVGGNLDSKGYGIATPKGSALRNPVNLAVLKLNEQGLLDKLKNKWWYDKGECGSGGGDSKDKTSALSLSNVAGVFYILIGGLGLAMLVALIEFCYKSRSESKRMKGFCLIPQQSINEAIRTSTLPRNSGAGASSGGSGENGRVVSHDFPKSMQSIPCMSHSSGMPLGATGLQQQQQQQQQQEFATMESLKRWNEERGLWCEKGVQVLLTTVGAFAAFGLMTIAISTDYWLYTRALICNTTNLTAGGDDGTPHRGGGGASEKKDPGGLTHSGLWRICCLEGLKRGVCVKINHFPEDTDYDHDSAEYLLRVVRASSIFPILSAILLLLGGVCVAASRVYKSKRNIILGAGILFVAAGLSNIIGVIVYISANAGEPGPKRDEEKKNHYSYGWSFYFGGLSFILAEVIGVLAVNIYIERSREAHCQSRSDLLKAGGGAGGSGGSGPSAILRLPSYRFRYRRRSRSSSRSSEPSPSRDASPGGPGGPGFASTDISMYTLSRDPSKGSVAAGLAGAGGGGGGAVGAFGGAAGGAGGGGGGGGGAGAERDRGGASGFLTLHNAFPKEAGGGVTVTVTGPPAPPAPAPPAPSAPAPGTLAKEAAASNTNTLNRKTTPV

Row | SMILES | IC50 [µM]
1 | O=c1[nH]c2ccc(-c3c(Cl)cccc3OCC3CC3(F)F)cc2[nH]1 (racemic) [Example 93, (±)-5-[2-Chloro-6-[(2,2-difluorocyclopropyl)methoxy]phenyl]-1,3-dihydrobenzimidazol-2-one] | 0.02
2 | O=c1[nH]c2ccc(-c3cccc(OCC4CC4(F)F)c3Cl)cc2[nH]1 (racemic) [Example 111, (±)-5-[2-Chloro-3-[(2,2-difluorocyclopropyl)methoxy]phenyl]-1,3-dihydrobenzimidazol-2-one] | 0.0501
3 | COc1cccc(OC(C)C(F)(F)F)c1-c1ccc2[nH]c(=O)[nH]c2c1 (racemic) [Example 121, (±)-5-[2-Methoxy-6-(2,2,2-trifluoro-1-methyl-ethoxy)phenyl]-1,3-dihydrobenzimidazol-2-one] | 0.158
4 | CC(C#N)c1cccc(Cl)c1-c1ccc2[nH]c(=O)[nH]c2c1 (racemic) [Example 126, (±)-2-[3-Chloro-2-(2-oxo-1,3-dihydrobenzimidazol-5-yl)phenyl]propanenitrile] | 0.0126
5 | O=c1[nH]c2ccc(-c3cccc(CN4CCOC(C(F)(F)F)C4)c3Cl)cc2[nH]1 (racemic) [Example 144, (±)-5-[2-Chloro-3-[[2-(trifluoromethyl)morpholin-4-yl]methyl]phenyl]-1,3-dihydrobenzimidazol-2-one] | 0.126
6 | Cc1c(CN2CCOC(C)C2)cccc1-c1ccc2[nH]c(=O)[nH]c2c1 (racemic) [Example 150, (±)-5-[2-Methyl-3-[(2-methylmorpholin-4-yl)methyl]phenyl]-1,3-dihydrobenzimidazol-2-one] | 0.2
7 | Cc1c(CN2CCOC(C(F)(F)F)C2)cccc1-c1ccc2[nH]c(=O)[nH]c2c1 (racemic) [Example 151, (±)-5-[2-Methyl-3-[[2-(trifluoromethyl)morpholin-4-yl]methyl]phenyl]-1,3-dihydrobenzimidazol-2-one] | 0.0316
8 | Cc1c(CN2CCOCC2C)cccc1-c1ccc2[nH]c(=O)[nH]c2c1 (stereo in doubt) [Example 152, (3R)-5-[2-Methyl-3-[[3-methylmorpholin-4-yl]methyl]phenyl]-1,3-dihydrobenzimidazol-2-one] | 1
9 | Cc1c(CN2CCOCC2C)cccc1-c1ccc2[nH]c(=O)[nH]c2c1 (stereo in doubt) [Example 153, (3S)-5-[2-Methyl-3-[[3-methylmorpholin-4-yl]methyl]phenyl]-1,3-dihydrobenzimidazol-2-one] | 0.316
10 | Cc1c(CN2CC[C@H](O)[C@H](F)C2)cccc1-c1ccc2[nH]c(=O)[nH]c2c1 (stereo in doubt) [Example 159, (3R,4S)-5-[3-[[3-Fluoro-4-hydroxy-1-piperidyl]methyl]-2-methyl-phenyl]-1,3-dihydrobenzimidazol-2-one] | 6.31
11 | Cc1cccc(-c2ccc3[nH]c(=O)[nH]c3c2)c1C [Example 1, 5-(2,3-Dimethylphenyl)-1,3-dihydrobenzimidazol-2-one] | 0.251
12 | Cc1ccccc1-c1ccc2[nH]c(=O)[nH]c2c1 [Example 3, 5-(o-Tolyl)-1,3-dihydrobenzimidazol-2-one] | 1.26
13 | O=c1[nH]c2ccc(-c3ccccc3-c3ccccc3)cc2[nH]1 [Example 5, 5-(2-Phenylphenyl)-1,3-dihydrobenzimidazol-2-one] | 0.1
14 | CC(C)c1ccccc1-c1ccc2[nH]c(=O)[nH]c2c1 [Example 6, 5-(2-Isopropylphenyl)-1,3-dihydrobenzimidazol-2-one] | 0.316
15 | COc1cccc(OC)c1-c1ccc2[nH]c(=O)[nH]c2c1 [Example 7, 5-(2,6-Dimethoxyphenyl)-1,3-dihydrobenzimidazol-2-one] | 1.26
16 | CC(C)Oc1ccccc1-c1ccc2[nH]c(=O)[nH]c2c1 [Example 8, 5-(2-Isopropoxyphenyl)-1,3-dihydrobenzimidazol-2-one] | 2
17 | CC(C)(C)OC(=O)N1CCN(c2ccccc2-c2ccc3[nH]c(=O)[nH]c3c2)CC1 [Example 9, tert-Butyl 4-[2-(2-oxo-1,3-dihydrobenzimidazol-5-yl)phenyl]piperazine-1-carboxylate] | 0.794
18 | Cc1ccc(Cl)cc1-c1ccc2[nH]c(=O)[nH]c2c1 [Example 10, 5-(5-Chloro-2-methyl-phenyl)-1,3-dihydrobenzimidazol-2-one] | 0.251
19 | CC(C)Oc1cccc(F)c1-c1ccc2[nH]c(=O)[nH]c2c1 [Example 11, 5-(2-Fluoro-6-isopropoxy-phenyl)-1,3-dihydrobenzimidazol-2-one] | 0.501
20 | O=c1[nH]c2ccc(-c3ccccc3OCC3CC3)cc2[nH]1 [Example 13, 5-[2-(Cyclopropylmethoxy)phenyl]-1,3-dihydrobenzimidazol-2-one] | 0.398
21 | Cc1ccc(OCC(C)C)c(-c2ccc3[nH]c(=O)[nH]c3c2)c1 [Example 15, 5-(2-Isobutoxy-5-methyl-phenyl)-1,3-dihydrobenzimidazol-2-one] | 0.0316
22 | CC(C)Oc1ccc(Cl)cc1-c1ccc2[nH]c(=O)[nH]c2c1 [Example 16, 5-(5-Chloro-2-isopropoxy-phenyl)-1,3-dihydrobenzimidazol-2-one] | 0.316
23 | Cc1ccc(C)c(-c2ccc3[nH]c(=O)[nH]c3c2)c1 [Example 21, 5-(2,5-Dimethylphenyl)-1,3-dihydrobenzimidazol-2-one] | 0.398
24 | CC(C)Oc1ccc(C(F)(F)F)cc1-c1ccc2[nH]c(=O)[nH]c2c1 [Example 22, 5-[2-Isopropoxy-5-(trifluoromethyl)phenyl]-1,3-dihydrobenzimidazol-2-one] | 0.316
25 | Cc1ccc(Cl)c(-c2ccc3[nH]c(=O)[nH]c3c2)c1Cl [Example 23, 5-(2,6-Dichloro-3-methyl-phenyl)-1,3-dihydrobenzimidazol-2-one] | 0.0158
26 | O=c1[nH]c2ccc(-c3ccccc3Oc3ccccc3)cc2[nH]1 [Example 24, 5-(2-Phenoxyphenyl)-1,3-dihydrobenzimidazol-2-one] | 0.501
27 | O=c1[nH]c2ccc(-c3c(F)cccc3OCc3ccccc3)cc2[nH]1 [Example 26, 5-(2-Benzyloxy-6-fluoro-phenyl)-1,3-dihydrobenzimidazol-2-one] | 0.1
28 | O=Cc1cccc(F)c1-c1ccc2[nH]c(=O)[nH]c2c1 [Example 27, 3-Fluoro-2-(2-oxo-1,3-dihydrobenzimidazol-5-yl)benzaldehyde] | 1.58
29 | COc1cccc(OC(C)C)c1-c1ccc2[nH]c(=O)[nH]c2c1 [Example 28, 5-(2-Isopropoxy-6-methoxy-phenyl)-1,3-dihydrobenzimidazol-2-one] | 0.0794

Other lines, results leading:

Row | IC50 [µM] | SMILES
30 | 0.0316 | CC(Oc1cccc(Cl)c1-c1ccc2[nH]c(=O)[nH]c2c1)C(F)(F)F (racemic) [Example 118, (±)-5-[2-Chloro-6-(2,2,2-trifluoro-1-methyl-ethoxy)phenyl]-1,3-dihydrobenzimidazol-2-one]
31 | 0.0501 | C[C@@H](Oc1cccc(Cl)c1-c1ccc2[nH]c(=O)[nH]c2c1)C(F)(F)F (single isomer, unassigned) [Example 119, (R*)-5-[2-Chloro-6-(2,2,2-trifluoro-1-methyl-ethoxy)phenyl]-1,3-dihydrobenzimidazol-2-one]
32 | 0.0794 | C[C@H](Oc1cccc(Cl)c1-c1ccc2[nH]c(=O)[nH]c2c1)C(F)(F)F (single isomer, unassigned) [Example 120, (S*)-5-[2-Chloro-6-(2,2,2-trifluoro-1-methyl-ethoxy)phenyl]-1,3-dihydrobenzimidazol-2-one]
33 | 0.501 | O=c1[nH]c2ccc(-c3ccccc3C(F)(F)F)cc2[nH]1 [Example 4, 5-[2-(Trifluoromethyl)phenyl]-1,3-dihydrobenzimidazol-2-one]
34 | 0.631 | O=c1[nH]c2ccc(-c3c(Cl)cccc3C(F)(F)F)cc2[nH]1 [Example 12, 5-[2-Chloro-6-(trifluoromethyl)phenyl]-1,3-dihydrobenzimidazol-2-one]
35 | 0.631 | O=c1[nH]c2ccc(-c3ccccc3Cl)cc2[nH]1 [Example 17, 5-(2-Chlorophenyl)-1,3-dihydrobenzimidazol-2-one]
36 | 0.251 | O=c1[nH]c2ccc(-c3cc(Cl)ccc3Cl)cc2[nH]1 [Example 18, 5-(2,5-Dichlorophenyl)-1,3-dihydrobenzimidazol-2-one]
37 | 0.2 | Cc1ccc(Cl)c(-c2ccc3[nH]c(=O)[nH]c3c2)c1 [Example 19, 5-(2-Chloro-5-methyl-phenyl)-1,3-dihydrobenzimidazol-2-one]
38 | 0.251 | COc1cccc(Cl)c1-c1ccc2[nH]c(=O)[nH]c2c1 [Example 20, 5-(2-Chloro-6-methoxy-phenyl)-1,3-dihydrobenzimidazol-2-one]
39 | 0.251 | O=c1[nH]c2ccc(-c3cc(C(F)(F)F)ccc3Cl)cc2[nH]1 [Example 25, 5-[2-Chloro-5-(trifluoromethyl)phenyl]-1,3-dihydrobenzimidazol-2-one]
40 | 0.0316 | O=c1[nH]c2ccc(-c3cccc(Cl)c3OC(F)(F)F)cc2[nH]1 [Example 29, 5-[3-Chloro-2-(trifluoromethoxy)phenyl]-1,3-dihydrobenzimidazol-2-one]
41 | 1.58 | O=c1[nH]c2ccc(-c3ccc(OC(F)(F)F)cc3Cl)cc2[nH]1 [Example 30, 5-[2-Chloro-4-(trifluoromethoxy)phenyl]-1,3-dihydrobenzimidazol-2-one]
42 | 0.316 | COc1cc(OC(F)(F)F)ccc1-c1ccc2[nH]c(=O)[nH]c2c1 [Example 33, 5-[2-Methoxy-4-(trifluoromethoxy)phenyl]-1,3-dihydrobenzimidazol-2-one]
